Experiments:
Test in all cases: KINOMEscan binding assay
[1] = biological target: T1, ABL1(F317L)-nonphosphorylated (Homo sapiens, UniProt P00519, F317L); conditions: read-out: % Retention on Solid Support
T1 construct: purchased DiscoveRx KINOMEscan
How it was run: (§1)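 Each kinase in a >400-member collection was probed for i-CDK9 binding via an active site-directed competition platform; test levels 1 and 10 µM.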

[2] = biological target: T2, ABL1(T315I)-nonphosphorylated (Homo sapiens, UniProt P00519, T315I); conditions: read-out: % Retention on Solid Support
T2 construct: purchased DiscoveRx KINOMEscan
How it was run: as §1

ADCK4 = biological target: T3, ADCK4 (Homo sapiens, UniProt Q96D53); conditions: read-out: % Retention on Solid Support
T3 construct: purchased DiscoveRx KINOMEscan
How it was run: as §1

AMPK-alpha2 = biological target: T4, AMPK-alpha2 (Homo sapiens, UniProt P54646); conditions: read-out: % Retention on Solid Support
T4 construct: purchased DiscoveRx KINOMEscan
How it was run: as §1

BMPR2 = biological target: T5, BMPR2 (Homo sapiens, UniProt Q13873)
T5 construct: purchased DiscoveRx KINOMEscan
How it was run: as §1

CDC2L1 = biological target: T6, CDC2L1 (Homo sapiens, UniProt P21127); conditions: read-out: % Retention on Solid Support
T6 construct: purchased DiscoveRx KINOMEscan
How it was run: as §1

[3] = biological target: T7, EGFR(L747-S752del, P753S) (Homo sapiens, UniProt P00533, DEL747-752/P753S)
T7 construct: purchased DiscoveRx KINOMEscan
How it was run: as §1

FLT3(K663Q) = biological target: T8, FLT3(K663Q) (Homo sapiens, UniProt P36888, K663Q); conditions: read-out: % Retention on Solid Support
T8 construct: purchased DiscoveRx KINOMEscan
How it was run: as §1

HIPK1 = biological target: T9, HIPK1 (Homo sapiens, UniProt Q86Z02); conditions: read-out: % Retention on Solid Support
T9 construct: purchased DiscoveRx KINOMEscan
How it was run: as §1

HIPK4 = biological target: T10, HIPK4 (Homo sapiens, UniProt Q8NE63); conditions: read-out: % Retention on Solid Support
T10 construct: purchased DiscoveRx KINOMEscan
How it was run: as §1

INSRR = biological target: T11, INSRR (Homo sapiens, UniProt P14616); conditions: read-out: % Retention on Solid Support
T11 construct: purchased DiscoveRx KINOMEscan
How it was run: as §1

ITK = biological target: T12, ITK (Homo sapiens, UniProt Q08881)
T12 construct: purchased DiscoveRx KINOMEscan
How it was run: as §1

KIT(L576P) = biological target: T13, KIT(L576P) (Homo sapiens, UniProt P10721, L576P); conditions: read-out: % Retention on Solid Support
T13 construct: purchased DiscoveRx KINOMEscan
How it was run: as §1

KIT(V559D,V654A) = biological target: T14, KIT(V559D,V654A) (Homo sapiens, UniProt P10721, V559D/V654A); conditions: read-out: % Retention on Solid Support
T14 construct: purchased DiscoveRx KINOMEscan
How it was run: as §1

LZK = biological target: T15, LZK (Homo sapiens, UniProt O43283)
T15 construct: purchased DiscoveRx KINOMEscan
How it was run: as §1

MAP4K3 = biological target: T16, MAP4K3 (Homo sapiens, UniProt Q8IVH8)
T16 construct: purchased DiscoveRx KINOMEscan
How it was run: as §1

MEK4 = biological target: T17, MEK4 (Homo sapiens, UniProt P45985); conditions: read-out: % Retention on Solid Support
T17 construct: purchased DiscoveRx KINOMEscan
How it was run: as §1

MEK5 = biological target: T18, MEK5 (Homo sapiens, UniProt Q13163); conditions: 1 µM i-CDK9; read-out: % Retention on Solid Support
T18 construct: purchased DiscoveRx KINOMEscan
How it was run: as §1

MKNK1 = biological target: T19, MKNK1 (Homo sapiens, UniProt Q9BUB5); conditions: read-out: % Retention on Solid Support
T19 construct: purchased DiscoveRx KINOMEscan
How it was run: as §1

NEK1 = biological target: T20, NEK1 (Homo sapiens, UniProt Q96PY6); conditions: read-out: % Retention on Solid Support
T20 construct: purchased DiscoveRx KINOMEscan
How it was run: as §1

NEK6 = biological target: T21, NEK6 (Homo sapiens, UniProt Q9HC98); conditions: read-out: % Retention on Solid Support
T21 construct: purchased DiscoveRx KINOMEscan
How it was run: as §1

PAK2 = biological target: T22, PAK2 (Homo sapiens, UniProt Q13177); conditions: read-out: % Retention on Solid Support
T22 construct: purchased DiscoveRx KINOMEscan
How it was run: as §1

PAK7 = biological target: T23, PAK7 (Homo sapiens, UniProt Q9P286); conditions: read-out: % Retention on Solid Support
T23 construct: purchased DiscoveRx KINOMEscan
How it was run: as §1

PFPK5(P.falciparum) = biological target: T24, PFPK5(P.falciparum) (Plasmodium falciparum, UniProt P61075); conditions: 1 µM i-CDK9; read-out: % Retention on Solid Support
T24 construct: purchased DiscoveRx KINOMEscan
How it was run: as §1

PKMYT1 = biological target: T25, PKMYT1 (Homo sapiens, UniProt Q99640)
T25 construct: purchased DiscoveRx KINOMEscan
How it was run: as §1

PRKG2 = biological target: T26, PRKG2 (Homo sapiens, UniProt Q13237); conditions: read-out: % Retention on Solid Support
T26 construct: purchased DiscoveRx KINOMEscan
How it was run: as §1

ROS1 = biological target: T27, ROS1 (Homo sapiens, UniProt P08922); conditions: read-out: % Retention on Solid Support
T27 construct: purchased DiscoveRx KINOMEscan
How it was run: as §1

[4] = biological target: RPS6KA4(Kin.Dom.2-C-terminal) (Homo sapiens, UniProt O75676); conditions: read-out: % Retention on Solid Support
How it was run: as §1

YSK1 = biological target: T28, YSK1 (Homo sapiens, UniProt O00506); conditions: read-out: % Retention on Solid Support
T28 construct: purchased DiscoveRx KINOMEscan
How it was run: as §1

T22 sequence (Q13177 whole entry): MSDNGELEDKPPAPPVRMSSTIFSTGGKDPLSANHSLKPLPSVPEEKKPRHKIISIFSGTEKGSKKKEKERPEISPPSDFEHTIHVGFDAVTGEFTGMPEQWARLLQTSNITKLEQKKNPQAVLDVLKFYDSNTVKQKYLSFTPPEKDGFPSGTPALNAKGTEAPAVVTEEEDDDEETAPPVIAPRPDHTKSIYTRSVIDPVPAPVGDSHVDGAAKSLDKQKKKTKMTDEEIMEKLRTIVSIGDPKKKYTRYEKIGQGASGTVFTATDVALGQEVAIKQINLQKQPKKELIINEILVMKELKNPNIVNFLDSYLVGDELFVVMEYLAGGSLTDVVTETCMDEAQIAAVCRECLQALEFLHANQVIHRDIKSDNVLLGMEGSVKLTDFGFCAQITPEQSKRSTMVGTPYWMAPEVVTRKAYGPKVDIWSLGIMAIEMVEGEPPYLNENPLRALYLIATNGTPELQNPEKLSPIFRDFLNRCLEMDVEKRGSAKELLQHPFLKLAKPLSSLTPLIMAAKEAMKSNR
T23 sequence (Q9P286 whole entry): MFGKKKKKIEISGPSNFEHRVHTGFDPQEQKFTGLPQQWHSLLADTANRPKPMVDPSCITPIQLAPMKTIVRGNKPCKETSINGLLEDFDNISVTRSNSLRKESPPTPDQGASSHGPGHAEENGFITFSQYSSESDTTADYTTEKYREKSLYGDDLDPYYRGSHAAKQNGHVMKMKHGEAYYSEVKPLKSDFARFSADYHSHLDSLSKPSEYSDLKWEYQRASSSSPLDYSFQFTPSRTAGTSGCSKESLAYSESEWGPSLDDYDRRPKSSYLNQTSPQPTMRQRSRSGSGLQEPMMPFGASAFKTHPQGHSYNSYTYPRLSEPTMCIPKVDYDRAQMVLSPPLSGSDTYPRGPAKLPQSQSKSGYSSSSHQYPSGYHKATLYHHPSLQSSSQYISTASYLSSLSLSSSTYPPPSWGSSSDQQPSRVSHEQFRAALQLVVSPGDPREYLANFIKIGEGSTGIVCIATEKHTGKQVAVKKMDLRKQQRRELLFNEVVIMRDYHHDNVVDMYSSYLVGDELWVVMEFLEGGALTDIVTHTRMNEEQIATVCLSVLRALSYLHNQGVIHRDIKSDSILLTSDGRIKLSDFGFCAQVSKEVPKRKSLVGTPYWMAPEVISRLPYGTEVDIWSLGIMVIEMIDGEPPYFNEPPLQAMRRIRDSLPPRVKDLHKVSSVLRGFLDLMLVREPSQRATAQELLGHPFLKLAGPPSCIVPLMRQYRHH
T28 sequence (O00506 whole entry): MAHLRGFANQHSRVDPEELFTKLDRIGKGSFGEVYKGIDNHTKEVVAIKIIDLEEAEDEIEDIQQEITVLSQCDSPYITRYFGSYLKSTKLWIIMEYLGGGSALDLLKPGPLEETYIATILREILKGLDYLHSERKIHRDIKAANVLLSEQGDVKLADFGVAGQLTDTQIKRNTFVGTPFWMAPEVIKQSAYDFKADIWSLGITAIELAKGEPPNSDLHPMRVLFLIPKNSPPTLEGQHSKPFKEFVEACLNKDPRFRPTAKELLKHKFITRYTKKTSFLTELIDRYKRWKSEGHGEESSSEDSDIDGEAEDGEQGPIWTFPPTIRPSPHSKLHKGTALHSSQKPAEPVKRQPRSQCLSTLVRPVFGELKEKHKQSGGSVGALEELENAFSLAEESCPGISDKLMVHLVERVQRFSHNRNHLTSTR
T17 sequence (P45985 whole entry): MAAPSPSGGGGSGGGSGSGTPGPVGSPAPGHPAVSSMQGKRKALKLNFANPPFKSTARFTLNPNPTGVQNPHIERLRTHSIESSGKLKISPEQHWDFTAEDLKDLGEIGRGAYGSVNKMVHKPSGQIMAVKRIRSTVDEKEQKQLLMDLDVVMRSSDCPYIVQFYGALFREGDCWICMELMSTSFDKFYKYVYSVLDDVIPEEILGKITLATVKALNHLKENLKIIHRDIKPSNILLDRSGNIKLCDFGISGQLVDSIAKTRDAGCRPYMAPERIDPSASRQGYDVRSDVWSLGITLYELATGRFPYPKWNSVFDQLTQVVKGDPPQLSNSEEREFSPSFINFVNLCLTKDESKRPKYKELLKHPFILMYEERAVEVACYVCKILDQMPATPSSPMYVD
T3 sequence (Q96D53 whole entry): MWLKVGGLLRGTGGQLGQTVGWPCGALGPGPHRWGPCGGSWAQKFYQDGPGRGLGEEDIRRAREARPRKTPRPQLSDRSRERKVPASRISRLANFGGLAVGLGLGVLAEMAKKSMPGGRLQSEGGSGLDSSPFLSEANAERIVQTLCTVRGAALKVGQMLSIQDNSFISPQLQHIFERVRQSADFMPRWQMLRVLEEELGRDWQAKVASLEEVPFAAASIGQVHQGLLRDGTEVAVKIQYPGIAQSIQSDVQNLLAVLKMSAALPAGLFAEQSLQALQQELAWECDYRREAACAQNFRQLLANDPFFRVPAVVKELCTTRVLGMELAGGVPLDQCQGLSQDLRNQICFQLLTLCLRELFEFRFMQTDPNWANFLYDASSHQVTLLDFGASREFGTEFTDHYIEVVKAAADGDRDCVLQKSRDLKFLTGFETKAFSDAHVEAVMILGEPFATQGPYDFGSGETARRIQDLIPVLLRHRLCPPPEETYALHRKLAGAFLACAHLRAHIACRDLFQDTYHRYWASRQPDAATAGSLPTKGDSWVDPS
T5 sequence (Q13873 27-1038): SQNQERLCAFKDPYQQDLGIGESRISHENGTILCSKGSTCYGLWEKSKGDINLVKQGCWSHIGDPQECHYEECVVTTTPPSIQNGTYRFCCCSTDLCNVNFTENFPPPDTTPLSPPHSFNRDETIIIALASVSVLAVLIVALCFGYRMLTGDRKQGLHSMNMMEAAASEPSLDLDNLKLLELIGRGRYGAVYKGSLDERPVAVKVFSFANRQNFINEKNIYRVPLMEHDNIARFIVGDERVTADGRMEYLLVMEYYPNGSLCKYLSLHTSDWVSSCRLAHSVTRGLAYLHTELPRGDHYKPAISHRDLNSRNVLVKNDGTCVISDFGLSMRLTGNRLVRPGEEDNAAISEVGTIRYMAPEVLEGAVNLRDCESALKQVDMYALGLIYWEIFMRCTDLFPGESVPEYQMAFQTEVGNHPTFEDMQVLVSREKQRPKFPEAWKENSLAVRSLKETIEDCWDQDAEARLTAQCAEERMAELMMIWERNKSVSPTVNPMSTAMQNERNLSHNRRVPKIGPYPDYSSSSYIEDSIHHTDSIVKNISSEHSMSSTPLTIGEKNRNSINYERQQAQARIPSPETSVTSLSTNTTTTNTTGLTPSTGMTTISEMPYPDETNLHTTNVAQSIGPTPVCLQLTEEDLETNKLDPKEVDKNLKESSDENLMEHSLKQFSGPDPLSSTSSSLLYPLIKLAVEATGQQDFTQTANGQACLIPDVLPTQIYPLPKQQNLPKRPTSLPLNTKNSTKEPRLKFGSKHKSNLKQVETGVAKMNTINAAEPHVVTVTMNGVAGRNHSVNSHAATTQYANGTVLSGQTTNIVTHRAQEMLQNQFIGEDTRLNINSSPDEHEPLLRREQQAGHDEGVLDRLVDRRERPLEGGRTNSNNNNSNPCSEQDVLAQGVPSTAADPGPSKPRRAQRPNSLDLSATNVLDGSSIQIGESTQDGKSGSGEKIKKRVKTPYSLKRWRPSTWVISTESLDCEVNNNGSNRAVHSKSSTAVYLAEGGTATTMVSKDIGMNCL
T21 sequence (Q9HC98 whole entry): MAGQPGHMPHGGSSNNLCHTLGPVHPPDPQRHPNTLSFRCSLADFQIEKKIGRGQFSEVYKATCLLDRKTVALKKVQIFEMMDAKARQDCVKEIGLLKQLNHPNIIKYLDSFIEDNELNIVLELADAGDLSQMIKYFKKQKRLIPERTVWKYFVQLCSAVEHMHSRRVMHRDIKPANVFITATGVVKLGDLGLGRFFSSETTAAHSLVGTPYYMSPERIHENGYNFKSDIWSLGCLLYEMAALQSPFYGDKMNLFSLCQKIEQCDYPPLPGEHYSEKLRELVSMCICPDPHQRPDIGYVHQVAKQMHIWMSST
T15 sequence (O43283 whole entry): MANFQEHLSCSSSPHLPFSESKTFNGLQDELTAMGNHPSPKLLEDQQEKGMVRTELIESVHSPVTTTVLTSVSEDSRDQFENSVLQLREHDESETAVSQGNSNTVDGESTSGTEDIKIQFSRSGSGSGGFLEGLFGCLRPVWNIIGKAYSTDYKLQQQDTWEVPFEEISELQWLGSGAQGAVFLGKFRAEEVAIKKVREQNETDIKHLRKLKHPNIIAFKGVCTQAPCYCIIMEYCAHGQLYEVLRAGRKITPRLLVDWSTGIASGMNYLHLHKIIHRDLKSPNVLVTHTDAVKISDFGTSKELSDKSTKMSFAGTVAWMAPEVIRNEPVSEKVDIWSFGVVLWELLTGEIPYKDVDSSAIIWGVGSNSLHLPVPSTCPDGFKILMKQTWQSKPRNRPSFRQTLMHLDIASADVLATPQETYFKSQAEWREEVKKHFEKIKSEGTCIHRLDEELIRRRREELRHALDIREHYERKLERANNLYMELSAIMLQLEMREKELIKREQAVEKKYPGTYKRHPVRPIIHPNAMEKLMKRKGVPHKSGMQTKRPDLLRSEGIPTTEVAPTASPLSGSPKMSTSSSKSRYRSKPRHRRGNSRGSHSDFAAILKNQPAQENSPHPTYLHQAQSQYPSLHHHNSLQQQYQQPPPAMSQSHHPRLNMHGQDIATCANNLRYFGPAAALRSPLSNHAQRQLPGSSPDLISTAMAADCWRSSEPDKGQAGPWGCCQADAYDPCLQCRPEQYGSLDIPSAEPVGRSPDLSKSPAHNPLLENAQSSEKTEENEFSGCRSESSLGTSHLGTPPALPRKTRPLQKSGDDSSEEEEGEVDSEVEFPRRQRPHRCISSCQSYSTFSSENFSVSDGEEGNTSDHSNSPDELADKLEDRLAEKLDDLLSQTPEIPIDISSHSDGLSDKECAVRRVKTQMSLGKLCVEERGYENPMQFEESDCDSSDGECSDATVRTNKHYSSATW

SMILES: N[C@H]1CC[C@H](Nc2cc(-c3cccc(NCc4cccc(F)c4)n3)c(Cl)cn2)CC1 [i-CDK9, N2′-(trans-4-aminocyclohexyl)-5′-chloro-N6-(3-fluorobenzyl)-2,4′-bipyridine-2′,6-diamine]
- remaining binding at 1 µM ([1]; 1 µM i-CDK9): 100%
- remaining binding at 10 µM ([1]; 10 µM i-CDK9): 91%
- remaining binding at 1 µM ([2]; 1 µM i-CDK9): 100%
- remaining binding at 10 µM ([2]; 10 µM i-CDK9): 83%
- remaining binding at 1 µM (ADCK4; 1 µM i-CDK9): 99%
- remaining binding at 10 µM (ADCK4; 10 µM i-CDK9): 48%
- remaining binding at 1 µM (AMPK-alpha2; 1 µM i-CDK9): 83%
- remaining binding at 10 µM (AMPK-alpha2; 10 µM i-CDK9): 88%
- % Retention on Solid Support (BMPR2; 1 µM i-CDK9): 100%
- % Retention on Solid Support (BMPR2; 10 µM i-CDK9): 100%
- remaining binding at 1 µM (CDC2L1; 1 µM i-CDK9): 92%
- remaining binding at 10 µM (CDC2L1; 10 µM i-CDK9): 36%
- % Retention on Solid Support ([3]; 1 µM i-CDK9): 46%
- % Retention on Solid Support ([3]; 10 µM i-CDK9): 65%
- remaining binding at 1 µM (FLT3(K663Q); 1 µM i-CDK9): 100%
- remaining binding at 10 µM (FLT3(K663Q); 10 µM i-CDK9): 74%
- remaining binding at 1 µM (HIPK1; 1 µM i-CDK9): 44%
- remaining binding at 10 µM (HIPK1; 10 µM i-CDK9): 29%
- remaining binding at 1 µM (HIPK4; 1 µM i-CDK9): 40%
- remaining binding at 10 µM (HIPK4; 10 µM i-CDK9): 3.2%
- remaining binding at 1 µM (INSRR; 1 µM i-CDK9): 92%
- remaining binding at 10 µM (INSRR; 10 µM i-CDK9): 97%
- % Retention on Solid Support (ITK; 1 µM i-CDK9): 100%
- % Retention on Solid Support (ITK; 10 µM i-CDK9): 86%
- remaining binding at 1 µM (KIT(L576P); 1 µM i-CDK9): 91%
- remaining binding at 10 µM (KIT(L576P); 10 µM i-CDK9): 100%
- remaining binding at 1 µM (KIT(V559D,V654A); 1 µM i-CDK9): 100%
- remaining binding at 10 µM (KIT(V559D,V654A); 10 µM i-CDK9): 75%
- % Retention on Solid Support (LZK; 1 µM i-CDK9): 100%
- % Retention on Solid Support (LZK; 10 µM i-CDK9): 100%
- % Retention on Solid Support (MAP4K3; 1 µM i-CDK9): 85%
- % Retention on Solid Support (MAP4K3; 10 µM i-CDK9): 70%
- remaining binding at 1 µM (MEK4; 1 µM i-CDK9): 39%
- remaining binding at 10 µM (MEK4; 10 µM i-CDK9): 97%
- remaining binding at 1 µM (MEK5): 100%
- remaining binding at 1 µM (MKNK1; 1 µM i-CDK9): 100%
- remaining binding at 10 µM (MKNK1; 10 µM i-CDK9): 100%
- remaining binding at 1 µM (NEK1; 1 µM i-CDK9): 70%
- remaining binding at 10 µM (NEK1; 10 µM i-CDK9): 100%
- remaining binding at 1 µM (NEK6; 1 µM i-CDK9): 70%
- remaining binding at 10 µM (NEK6; 10 µM i-CDK9): 100%
- remaining binding at 1 µM (PAK2; 1 µM i-CDK9): 98%
- remaining binding at 10 µM (PAK2; 10 µM i-CDK9): 91%
- remaining binding at 1 µM (PAK7; 1 µM i-CDK9): 75%
- remaining binding at 10 µM (PAK7; 10 µM i-CDK9): 81%
- remaining binding at 1 µM (PFPK5(P.falciparum)): 100%
- % Retention on Solid Support (PKMYT1; 1 µM i-CDK9): 100%
- % Retention on Solid Support (PKMYT1; 10 µM i-CDK9): 93%
- remaining binding at 1 µM (PRKG2; 1 µM i-CDK9): 100%
- remaining binding at 10 µM (PRKG2; 10 µM i-CDK9): 100%
- remaining binding at 1 µM (ROS1; 1 µM i-CDK9): 98%
- remaining binding at 10 µM (ROS1; 10 µM i-CDK9): 100%
- remaining binding at 1 µM ([4]; 1 µM i-CDK9): 100%
- remaining binding at 10 µM ([4]; 10 µM i-CDK9): 74%
- remaining binding at 1 µM (YSK1; 1 µM i-CDK9): 98%
- remaining binding at 10 µM (YSK1; 10 µM i-CDK9): 96%

Reference: publication PMC4490784, “Compensatory induction of MYC expression by sustained CDK9 inhibition via a BRD4-dependent mechanism” (eLife, 2015)
